Assay [1] in a line: Selectivity ratio of Ki for rat nNOS to Ki for mouse iNOS.
Assay [2] concerns the target T1, Nitric oxide synthase, inducible (Mus musculus, UniProt P29477).
T1 sequence (P29477 whole entry): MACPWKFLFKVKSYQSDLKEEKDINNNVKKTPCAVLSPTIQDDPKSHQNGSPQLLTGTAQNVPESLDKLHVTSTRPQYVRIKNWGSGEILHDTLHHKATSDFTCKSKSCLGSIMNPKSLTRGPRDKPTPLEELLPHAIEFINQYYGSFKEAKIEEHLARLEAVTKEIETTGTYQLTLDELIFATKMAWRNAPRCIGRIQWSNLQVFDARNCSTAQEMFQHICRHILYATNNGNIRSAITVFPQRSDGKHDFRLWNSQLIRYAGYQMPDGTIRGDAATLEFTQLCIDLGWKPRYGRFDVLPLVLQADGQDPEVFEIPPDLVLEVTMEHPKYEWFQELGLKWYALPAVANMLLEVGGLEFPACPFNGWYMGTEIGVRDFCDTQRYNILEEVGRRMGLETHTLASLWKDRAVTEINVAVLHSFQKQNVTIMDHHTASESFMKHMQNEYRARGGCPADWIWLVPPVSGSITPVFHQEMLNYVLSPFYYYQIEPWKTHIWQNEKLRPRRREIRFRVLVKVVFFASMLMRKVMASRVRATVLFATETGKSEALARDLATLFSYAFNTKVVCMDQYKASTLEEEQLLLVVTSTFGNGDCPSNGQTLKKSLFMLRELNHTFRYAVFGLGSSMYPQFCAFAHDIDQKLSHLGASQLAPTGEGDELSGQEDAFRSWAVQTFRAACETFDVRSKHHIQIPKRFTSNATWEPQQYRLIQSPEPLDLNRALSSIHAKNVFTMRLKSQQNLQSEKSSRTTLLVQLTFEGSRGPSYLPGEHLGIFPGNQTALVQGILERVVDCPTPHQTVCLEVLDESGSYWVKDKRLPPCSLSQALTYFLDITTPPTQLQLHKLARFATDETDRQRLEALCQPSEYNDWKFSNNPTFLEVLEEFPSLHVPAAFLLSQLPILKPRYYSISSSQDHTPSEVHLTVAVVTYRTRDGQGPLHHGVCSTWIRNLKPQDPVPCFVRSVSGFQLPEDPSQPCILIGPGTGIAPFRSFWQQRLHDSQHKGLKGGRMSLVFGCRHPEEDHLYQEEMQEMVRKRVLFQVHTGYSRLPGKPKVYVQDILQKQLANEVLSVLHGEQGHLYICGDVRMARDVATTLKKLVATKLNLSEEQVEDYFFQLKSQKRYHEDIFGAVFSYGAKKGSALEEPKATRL
Briefly: Inhibition of mouse iNOS expressed in Escherichia coli using L-arginine as substrate assessed as formation of nitric oxide by hemoglobin capture assay.

Assay [3] is described as follows: Selectivity ratio of Ki for rat nNOS to Ki for bovine eNOS.
In assay [4] the target is T2, Nitric oxide synthase 3 (Bos taurus, UniProt P29473).
T2 sequence (P29473 whole entry): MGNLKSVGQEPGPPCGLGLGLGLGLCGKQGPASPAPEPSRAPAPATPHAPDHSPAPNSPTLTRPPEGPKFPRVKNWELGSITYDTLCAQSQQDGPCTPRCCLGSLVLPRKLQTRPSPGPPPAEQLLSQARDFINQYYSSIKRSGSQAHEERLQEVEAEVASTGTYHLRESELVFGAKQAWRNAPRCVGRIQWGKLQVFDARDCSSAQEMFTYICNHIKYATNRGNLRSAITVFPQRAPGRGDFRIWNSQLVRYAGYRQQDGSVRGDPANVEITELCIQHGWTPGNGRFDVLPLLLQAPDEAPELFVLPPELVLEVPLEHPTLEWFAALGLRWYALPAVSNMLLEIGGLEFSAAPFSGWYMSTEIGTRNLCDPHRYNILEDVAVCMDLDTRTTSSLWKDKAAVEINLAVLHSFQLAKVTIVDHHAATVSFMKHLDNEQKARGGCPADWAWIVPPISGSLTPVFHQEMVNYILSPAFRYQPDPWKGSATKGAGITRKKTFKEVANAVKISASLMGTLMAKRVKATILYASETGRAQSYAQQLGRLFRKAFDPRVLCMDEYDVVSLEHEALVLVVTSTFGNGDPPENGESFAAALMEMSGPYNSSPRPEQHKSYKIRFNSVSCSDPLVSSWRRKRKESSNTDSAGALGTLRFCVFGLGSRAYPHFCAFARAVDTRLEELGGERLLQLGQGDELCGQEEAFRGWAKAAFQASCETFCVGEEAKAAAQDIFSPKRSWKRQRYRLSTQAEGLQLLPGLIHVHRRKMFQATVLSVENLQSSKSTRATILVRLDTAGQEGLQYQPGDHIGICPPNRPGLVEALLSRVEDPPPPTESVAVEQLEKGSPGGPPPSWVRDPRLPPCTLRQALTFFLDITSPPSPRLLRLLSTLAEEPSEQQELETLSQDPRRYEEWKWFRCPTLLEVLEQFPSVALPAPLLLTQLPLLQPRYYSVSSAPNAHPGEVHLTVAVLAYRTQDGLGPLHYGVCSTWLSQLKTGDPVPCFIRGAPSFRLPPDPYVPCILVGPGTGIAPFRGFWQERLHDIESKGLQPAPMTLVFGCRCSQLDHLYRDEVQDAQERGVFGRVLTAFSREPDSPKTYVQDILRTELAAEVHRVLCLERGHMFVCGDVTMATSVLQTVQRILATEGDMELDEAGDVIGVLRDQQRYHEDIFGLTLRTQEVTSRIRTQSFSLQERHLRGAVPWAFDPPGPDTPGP
Nature of the assay: Inhibition of bovine eNOS expressed in Escherichia coli using L-arginine as substrate assessed as formation of nitric oxide by hemoglobin capture assay.

Assay [5] has as its target Nitric oxide synthase 1 (Rattus norvegicus, UniProt P29476). Nature of the assay: Inhibition of rat nNOS expressed in Escherichia coli using L-arginine as substrate assessed as formation of nitric oxide by hemoglobin capture assay.

The values that follow come from ChEMBL document CHEMBL2331549, “Cyclopropyl- and methyl-containing inhibitors of neuronal nitric oxide synthase” (Bioorg Med Chem, 2013).

The structures appear in SMILES notation.

Chain of Nitric oxide synthase 1 (P29476 whole entry): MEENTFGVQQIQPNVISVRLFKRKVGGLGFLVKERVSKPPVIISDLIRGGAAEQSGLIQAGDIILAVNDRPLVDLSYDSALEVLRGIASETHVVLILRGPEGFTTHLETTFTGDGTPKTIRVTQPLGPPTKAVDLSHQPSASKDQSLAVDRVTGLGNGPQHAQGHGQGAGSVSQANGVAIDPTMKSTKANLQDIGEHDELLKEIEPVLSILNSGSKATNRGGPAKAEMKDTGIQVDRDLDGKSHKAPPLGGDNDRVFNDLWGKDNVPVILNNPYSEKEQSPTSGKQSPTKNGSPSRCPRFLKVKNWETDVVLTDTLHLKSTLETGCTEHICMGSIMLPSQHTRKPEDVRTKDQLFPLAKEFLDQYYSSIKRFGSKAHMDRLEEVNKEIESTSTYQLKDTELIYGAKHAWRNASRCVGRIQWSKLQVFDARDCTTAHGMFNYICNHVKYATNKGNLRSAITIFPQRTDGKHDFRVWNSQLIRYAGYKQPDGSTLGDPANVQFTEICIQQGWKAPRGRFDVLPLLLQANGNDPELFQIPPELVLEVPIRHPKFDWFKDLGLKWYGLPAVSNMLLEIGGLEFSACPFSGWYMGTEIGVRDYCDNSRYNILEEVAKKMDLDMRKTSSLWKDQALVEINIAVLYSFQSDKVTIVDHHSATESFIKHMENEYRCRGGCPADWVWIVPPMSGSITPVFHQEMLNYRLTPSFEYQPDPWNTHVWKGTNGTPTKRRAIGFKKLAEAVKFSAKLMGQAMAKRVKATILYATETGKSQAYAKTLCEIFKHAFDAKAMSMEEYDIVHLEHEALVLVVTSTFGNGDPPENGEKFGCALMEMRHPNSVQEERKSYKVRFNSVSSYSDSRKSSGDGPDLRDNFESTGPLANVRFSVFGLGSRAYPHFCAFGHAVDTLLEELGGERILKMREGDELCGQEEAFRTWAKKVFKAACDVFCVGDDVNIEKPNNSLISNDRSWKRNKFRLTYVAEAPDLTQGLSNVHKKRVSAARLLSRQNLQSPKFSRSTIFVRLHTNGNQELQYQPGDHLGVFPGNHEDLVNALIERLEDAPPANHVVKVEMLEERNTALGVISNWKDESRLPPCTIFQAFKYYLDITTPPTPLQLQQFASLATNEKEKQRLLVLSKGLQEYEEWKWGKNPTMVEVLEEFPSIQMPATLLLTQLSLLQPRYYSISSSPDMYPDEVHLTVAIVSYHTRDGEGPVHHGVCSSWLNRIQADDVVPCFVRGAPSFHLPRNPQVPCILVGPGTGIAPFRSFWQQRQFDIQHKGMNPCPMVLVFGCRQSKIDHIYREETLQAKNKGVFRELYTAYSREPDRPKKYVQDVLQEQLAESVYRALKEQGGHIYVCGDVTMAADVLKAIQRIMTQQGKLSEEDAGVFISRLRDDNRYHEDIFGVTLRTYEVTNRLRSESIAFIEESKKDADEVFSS

As a reminder, the Ki is a dissociation constant, usually derived from enzyme kinetics or from competition with a known ligand. Regarding `Cc1cc(N)nc(C[C@@H]2CNC[C@@H]2OCCN[C@H](C)Cc2cccc(F)c2)c1`, the results for the Ratio Ki in assay [1] and in assay [3] were 110 and 570, respectively. The inhibition constant (Ki) was determined as 7.6 µM in assay [2], 40 µM in assay [4] and 0.07 µM in assay [5].
In the same order, the values of `Cc1cc(N)nc(C[C@@H]2CNC[C@@H]2OCCNC2CC2c2cccc(F)c2)c1` (mixture of isomers) are 94, 300, 16 µM, 51 µM and 0.17 µM.
In the case of `Cc1cc(N)nc(C[C@@H]2CNC[C@@H]2OCCNC(C)Cc2cccc(F)c2)c1` (mixture of isomers), the Ratio Ki in assay [1] worked out at 12; in assay [3] it was 370.
In the same order, the values of `Cc1cc(N)nc(C[C@@H]2CNC[C@@H]2OCCNC2CC2c2cccc(Cl)c2)c1` (mixture of isomers) are 12 and 370.
